Source: patent US12281149B2, “Modulators of G-protein coupled receptors” (priority 2021, dated 2025)
*1 amine or outer side, *2 acyl side, *3 side chain or, on linkers, in order; H or OH if unused. Where a SMILES comes first, the peptide text is derived from it. Side-chain parts run from the residue outwards. [ ]: non-standard residue; d: D form. The star is where a group is joined. C20 diacid = O=C(O)CCCCCCCCCCCCCCCCCCC(=O)*; γGlu = O=C(O)[C@H](CCC(=O)[*:2])N[*:1]; X18 = O=C(C1(c2cccc(F)c2)CCCC1)*; AEEA = NCCOCCOCC(=O)O; Aib = CC(C)(N)C(=O)O; βAla = NCCC(=O)O

Key:
Type in all cases: cell-based
GLP-1 receptor [1] = molecular target: T1, GLP-1 receptor (Homo sapiens, UniProt P43220); experiment: HitHunter cAMP assay, GLP-1 receptor
GIP receptor [2] = molecular target: T2, GIP receptor (Homo sapiens, UniProt P48546); experiment: HitHunter cAMP assay, GIP receptor
T2 sequence (P48546 22-466): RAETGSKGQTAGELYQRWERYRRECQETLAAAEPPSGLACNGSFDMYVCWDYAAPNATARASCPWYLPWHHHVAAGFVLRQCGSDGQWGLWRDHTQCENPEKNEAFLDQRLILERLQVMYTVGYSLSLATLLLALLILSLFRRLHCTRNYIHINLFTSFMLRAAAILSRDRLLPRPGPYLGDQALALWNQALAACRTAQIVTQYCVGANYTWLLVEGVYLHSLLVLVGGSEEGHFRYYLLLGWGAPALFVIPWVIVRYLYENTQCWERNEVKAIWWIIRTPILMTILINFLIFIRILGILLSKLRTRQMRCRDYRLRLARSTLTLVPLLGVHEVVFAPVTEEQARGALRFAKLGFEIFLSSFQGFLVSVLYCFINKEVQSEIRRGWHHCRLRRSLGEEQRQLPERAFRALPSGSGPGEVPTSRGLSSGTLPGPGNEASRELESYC

GIP receptor [3] = molecular target: T2, GIP receptor; experiment: PathHunter β-arrestin assay, GIP receptor; design: host or cells: PathHunter CHO-K1 GIPR β-Arrestin Cell Line; settings: β-arrestin-2 recruitment, PathHunter CHO-K1 GIPR β-Arrestin Cell Line, 90 min at 37° C.; normalized to GIP; read-out: GIPR β Arrestin EC50
GLP-1 receptor [4] = molecular target: T1, GLP-1 receptor; experiment: PathHunter β-arrestin assay, GLP-1 receptor; design: host or cells: PathHunter CHO-K1 GLP1R β-Arrestin Cell Line; settings: β-arrestin-2 recruitment, PathHunter CHO-K1 GLP1R β-Arrestin Cell Line, 90 min at 37° C.; normalized to GLP-1; read-out: GLP-1R β Arrestin EC50

T1 sequence (P43220 24-463): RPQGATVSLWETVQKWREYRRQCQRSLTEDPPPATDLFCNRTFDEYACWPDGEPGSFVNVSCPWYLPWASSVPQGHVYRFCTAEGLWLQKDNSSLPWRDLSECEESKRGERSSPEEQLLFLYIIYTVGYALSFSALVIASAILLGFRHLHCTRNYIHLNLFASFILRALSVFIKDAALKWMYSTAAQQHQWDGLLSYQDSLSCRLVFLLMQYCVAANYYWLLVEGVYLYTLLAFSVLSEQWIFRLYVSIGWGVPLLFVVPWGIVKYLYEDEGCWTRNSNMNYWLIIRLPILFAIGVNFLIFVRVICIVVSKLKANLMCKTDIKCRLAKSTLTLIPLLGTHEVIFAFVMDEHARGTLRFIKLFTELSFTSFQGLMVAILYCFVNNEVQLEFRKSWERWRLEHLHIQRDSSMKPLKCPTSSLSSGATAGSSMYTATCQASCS

SMILES: CC[C@H](C)[C@H](NC(=O)[C@H](CC(C)C)NC(=O)[C@H](Cc1c[nH]c2ccccc12)NC(=O)[C@H](CCC(N)=O)NC(=O)[C@@H](NC(=O)[C@H](Cc1ccccc1)NC(=O)[C@H](C)NC(=O)[C@H](CCCCNC(=O)COCCOCCNC(=O)COCCOCCNC(=O)CC[C@H](NC(=O)CCCCCCCCCCCCCCCCCCC(=O)O)C(=O)O)NC(=O)[C@H](CCC(N)=O)NC(=O)[C@H](C)NC(=O)[C@@H](NC(=O)[C@H](CCCCN)NC(=O)[C@H](CC(=O)O)NC(=O)[C@H](CC(C)C)NC(=O)C(C)(C)NC(=O)[C@@H](NC(=O)[C@H](CO)NC(=O)[C@H](Cc1ccc(O)cc1)NC(=O)[C@H](CC(=O)O)NC(=O)[C@H](CO)NC(=O)[C@@H](NC(=O)[C@H](Cc1ccccc1)NC(=O)[C@@H](NC(=O)CNC(=O)[C@H](CCC(=O)O)NC(=O)CCNC(=O)C1(c2cccc(F)c2)CCCC1)[C@@H](C)O)[C@@H](C)O)[C@@H](C)CC)[C@@H](C)CC)C(C)C)C(=O)N[C@@H](C)C(=O)NCC(=O)NCC(=O)N1CCC[C@H]1C(=O)N[C@@H](CO)C(=O)N[C@@H](CO)C(=O)NCC(=O)N[C@@H](C)C(=O)N1CCC[C@H]1C(=O)N1CCC[C@H]1C(=O)N1CCC[C@H]1C(=O)N[C@@H](CO)C(N)=O [Compound 214] ({X18-βAla}-EGTFTSDYSI[Aib]LDKIAQK([AEEA-AEEA-γGlu-C20 diacid])AFVQWLIAGGPSSGAPPPS-NH2)
- EC50 (GLP-1 receptor [1]; CHO cells stably expressing human GLP-1 receptor, cAMP accumulation, 30 min, read-out: EC50 GLP-1R): 0.1 to 1 nM
- Emax (GLP-1 receptor [1]; CHO cells, cAMP, normalized to maximum signal from GLP-1 (high) and DMSO (low), read-out: Emax GLP-1R): 97%
- EC50 (GIP receptor [2]; CHO cells stably expressing GIP receptor, cAMP accumulation, 30 min, read-out: EC50 GIP-1R): 0.1 to 1 nM
- Emax (GIP receptor [2]; CHO cells, cAMP, normalized to maximum signal from GIP (high) and DMSO (low), read-out: Emax GIP-1R): 101%
- EC50 (GIP receptor [3]): > 1000 nM
- EC50 (GLP-1 receptor [4]): > 1000 nM
